“And” between values parts separate entries of the source, which are not always exact repeats. Equal values may be shown once. Where a SMILES comes first, the peptide text is derived from it. The star is where a group is joined. Cbz = O=C(OCc1ccccc1)*
Tests used:
EGFR^Del19 = EGFR^Del19 (Homo sapiens, UniProt P00533+Q96SW2, DEL746-750); assay: Western blot of EGFR degradation in HCC827 cells; assay type: cell-based; set-up: host or cells: HCC827; details: for Degradation activity, in words: HCC827 (EGFR^Del19) cells; for EGFR degradation (%): HCC827, 24 h, average of two independent experiments, NA = not active; for Rescue of EGFR^Del19 reduction induced by compound 12 or 14 (competition) / Effect of inhibitor pretreatment on EGFR^Del19 degradation induced by compound 14: HCC827; for Rescue of EGFR^Del19 reduction induced by compound 12 or 14 (competition): 2 h pretreatment, 10 nM degrader 4 h; for Effect of inhibitor pretreatment on EGFR^Del19 degradation induced by compound 14: 2 μM MG132 or 5 μM MLN4924 for 2 h, then 10 nM of 14 for 8 h
Protocol: HCC827 and H1975 cell lines were purchased from ATCC (United States) and cultured according to the manuals. Cells were grown in monolayers in appropriate media supplemented with 10% fetal bovine serum and 1% antibiotic/antimycotic solution.
(§1) Cells at 70%–90% confluence were lysed in RIPA buffer with complete protease inhibitor cocktail (Roche Applied Science, Penzberg, Germany). Lysates were quantified, separated on SDS-PAGE gels, and transferred onto PVDF membranes, followed by the blockade with 5% milk in TBS+ 0.1% Tween-20 buffer for 1 h at room temperature. The following primary antibodies were used: anti-EGFR (1:50000, ABclonal Technology, Wuhan, China), anti-pEGFR (Tyr1068, […], Cell Signaling Technology, MA, United States), anti-AKT (1:10000, ABclonal Technology, Wuhan, China), anti-pAKT (1:10000, ABclonal Technology, Wuhan, China), and anti-β-actin (1:10000, ABclonal Technology, Wuhan, China). Protein bands were detected using Tanon High-signal ECL Western Blotting Substrate (Tanon Science and Technology Co., Ltd., Shanghai, China). The band density of the protein of interest was quantified using ImageJ.

HCC827 cells = assay: Cell viability (CCK-8) in HCC827 cells; assay type: cell-based, human; details: for IC50: Homo sapiens, CCK-8
Protocol: (§2) The viability of cells was determined using Cell Counting Kit-8 (CCK-8; Dojindo), and IC50 was calculated using GraphPad Prism (version 6.0). For colony formation assays, cells (1 × 10^3 cells/well) seeded in 24-well plates were treated with different concentrations of compounds and replaced with fresh media with compounds every 4 days. After 7 days, the cells were washed with PBS, fixed with methanol, and stained with 0.1% crystal violet solution.

pEGFR and pAKT = assay: Western blot of downstream signaling in HCC827 cells; assay type: cell-based, human
Protocol: as §1

HeLa cells = assay: Cell viability (CCK-8) in HeLa cells; assay type: cell-based; details: up to 1 μM, 96 h
Protocol: as §2, with “Cells (5 × 10^3 for 48 h or 1 × 10^3 for 96 h) were seeded in 96-well plates, allowed to attach overnight, and then incubated with various concentrations of compounds for 48 h or 96 h. The” for “The”

H1975 cells = assay: Cell viability (CCK-8) in H1975 cells; assay type: cell-based; details: up to 1 μM, 96 h
Protocol: as §2, with “Cells (5 × 10^3 for 48 h or 1 × 10^3 for 96 h) were seeded in 96-well plates, allowed to attach overnight, and then incubated with various concentrations of compounds for 48 h or 96 h. The” for “The”

EGFR^L858R/T790M protein = molecular target: T1, EGFR^L858R/T790M protein (Homo sapiens, UniProt P00533, L858R/T790M); assay: Immunoblots of EGFR in H1975 cells; assay type: cell-based; details: H1975 cell line, up to 1 μM, 24 h
T1 construct: nor the EGFR^L858R/T790M protein in the H1975 cell line, up to 1 μM; host or cells: H1975
Protocol: as §1

H1299 cells = assay: Cell viability (CCK-8) in H1299 cells; assay type: cell-based; details: up to 1 μM, 96 h
Protocol: as §2, with “Cells (5 × 10^3 for 48 h or 1 × 10^3 for 96 h) were seeded in 96-well plates, allowed to attach overnight, and then incubated with various concentrations of compounds for 48 h or 96 h. The” for “The”

EGFR^WT protein = EGFR^WT protein (Homo sapiens, UniProt P00533); assay: Immunoblots of EGFR in H1299, H460 and HeLa cells; assay type: cell-based; details: H1299, H460 and HeLa cell lines, up to 1 μM, 24 h
Protocol: as §1

## COc1cc2c(Nc3ccc(F)c(Cl)c3)ncnc2cc1OCCCN1CCN(CCN2CCN(c3ccc4c(c3)C(=O)N(C3CCC(=O)N(C)C3=O)C4=O)CC2)CC1 (stereo not drawn) [Compound 15]
EGFR^Del19; 10 nM
  Degradation activity, in words: completely lost its degradation ability

## O=C1CCC(N2C(=O)c3ccc(OCCCCCCCCOc4cc5ncnc(Nc6ccc(F)c(Cl)c6)c5cc4OCCCN4CCOCC4)cc3C2=O)C(=O)N1 (stereo not drawn) [Compound 2]
EGFR^Del19; 10 nM
  Degradation activity, in words: weak degradation activities
  EGFR degradation (%): 15.3 ± 5.9%

## O=C1CCC(N2C(=O)c3ccc(N4CCN(CCCCCCCCCCOc5cc6ncnc(Nc7ccc(F)c(Cl)c7)c6cc5OCCCN5CCOCC5)CC4)cc3C2=O)C(=O)N1 (stereo not drawn) [Compound 7]
EGFR^Del19; 10 nM
  EGFR degradation (%): 19.4 ± 15.1%

## O=C1CCC(N2C(=O)c3ccc(OCCCCCCCCCCCOc4cc5ncnc(Nc6ccc(F)c(Cl)c6)c5cc4OCCCN4CCOCC4)cc3C2=O)C(=O)N1 (stereo not drawn) [Compound 3]
EGFR^Del19; 10 nM
  Degradation activity, in words: weak degradation activities
  EGFR degradation (%): 7.0 ± 9.3%

## O=C1CCC(N2C(=O)c3ccccc3C2=O)C(=O)N1 (stereo not drawn) [thalidomide, reference compound]
HCC827 cells; up to 200 nM
  Influence on viability of HCC827 cells: no influence
EGFR^Del19; 100 times the degrader dose (1 μM)
  Rescue of EGFR^Del19 reduction induced by compound 12 or 14 (competition): slight decrease in EGFR^Del19 was still observed
EGFR^Del19; 500 times the degrader dose (5 μM)
  Rescue of EGFR^Del19 reduction induced by compound 12 or 14 (competition): completely rescue

## NS(=O)(=O)OC[C@@H]1C[C@@H](n2ccc3c(N[C@H]4CCc5ccccc54)ncnc32)C[C@@H]1O [MLN4924, reference compound]
EGFR^Del19
  Effect of inhibitor pretreatment on EGFR^Del19 degradation induced by compound 14: restored

## O=C1CCC(N2C(=O)c3ccc(N4CCN(CCN5CCN(CCCOc6cc7ncnc(Nc8ccc(F)c(Cl)c8)c7cc6OCCCN6CCOCC6)CC5)CC4)cc3C2=O)C(=O)N1 (stereo not drawn) [Compound 12]
pEGFR and pAKT
  Levels of pEGFR and pAKT: markedly reduced
HCC827 cells; HCC827, 48 h, HCC827, 48 h incubation
  IC50: ~30.7 nM
HCC827 cells; HCC827, 96 h, HCC827, 96 h incubation
  IC50: ~25.6 nM
HeLa cells
  Effect on viability: did not affect the viability
EGFR^Del19; 10 nM
  EGFR degradation (%): 60.0% ± 6.9% and 60.0 ± 6.9%
EGFR^Del19; HCC827 cells, 10 nM
  Earliest time at which EGFR^Del19 degradation observed: 2 h
EGFR^Del19; HCC827 cells, 24 h, dose-response
  Dmax: 85.1%
EGFR^Del19; HCC827 cells, 24 h treatment
  DC50: 1.94 nM
H1975 cells
  Effect on viability: did not affect the viability
EGFR^L858R/T790M protein
  Degradation of EGFR^L858R/T790M protein: neither compound degraded
H1299 cells
  Effect on viability: did not affect the viability
EGFR^WT protein
  Degradation of EGFR^WT protein: neither compound degraded

## O=C1CCC(N2C(=O)c3ccc(N4CCN(CCCN5CCN(CCOc6cc7ncnc(Nc8ccc(F)c(Cl)c8)c7cc6OCCCN6CCOCC6)CC5)CC4)cc3C2=O)C(=O)N1 (stereo not drawn) [Compound 13]
EGFR^Del19; 10 nM
  EGFR degradation (%): 16.8 ± 10.5%

## CC(C)C[C@@H](C=O)NC(=O)[C@H](CC(C)C)NC(=O)[C@H](CC(C)C)NC(=O)OCc1ccccc1 [MG132, reference compound] (Cbz-Leu-Leu-Leu-aldehyde)
EGFR^Del19
  Effect of inhibitor pretreatment on EGFR^Del19 degradation induced by compound 14: restored

## O=C1CCC(N2C(=O)c3ccc(N4CCN(CCN5CCN(CCOc6cc7ncnc(Nc8ccc(F)c(Cl)c8)c7cc6OCCCN6CCOCC6)CC5)CC4)cc3C2=O)C(=O)N1 (stereo not drawn) [Compound 11]
EGFR^Del19; 10 nM
  EGFR degradation (%): 25.1 ± 11.2%

## O=C1CCC(N2C(=O)c3ccc(OCCCCCOc4cc5ncnc(Nc6ccc(F)c(Cl)c6)c5cc4OCCCN4CCOCC4)cc3C2=O)C(=O)N1 (stereo not drawn) [Compound 1]
EGFR^Del19; 10 nM
  Degradation activity, in words: no degradation effect
  EGFR degradation (%): −6.6 ± 4.2%

## O=C1CCC(N2C(=O)c3ccc(N4CCN(C(=O)CCCCCCCOc5cc6ncnc(Nc7ccc(F)c(Cl)c7)c6cc5OCCCN5CCOCC5)CC4)cc3C2=O)C(=O)N1 (stereo not drawn) [Compound 6]
EGFR^Del19; 10 nM
  EGFR degradation (%): 15.0 ± 4.0%

## O=C1CCC(N2C(=O)c3ccc(N4CCN(CCCC(=O)N5CCN(CCCOc6cc7ncnc(Nc8ccc(F)c(Cl)c8)c7cc6OCCCN6CCOCC6)CC5)CC4)cc3C2=O)C(=O)N1 (stereo not drawn) [Compound 9]
EGFR^Del19; 10 nM
  EGFR degradation (%): 66.3 ± 22.7%

## COc1cc2ncnc(Nc3ccc(F)c(Cl)c3)c2cc1OCCCN1CCOCC1 [gefitinib, reference compound]
HeLa cells
  Effect on viability: did not affect the viability
H1975 cells
  Effect on viability: did not affect the viability
H1299 cells
  Effect on viability: did not affect the viability

## O=C1CCC(N2C(=O)c3ccc(N4CCN(CCCCN5CCN(CCCOc6cc7ncnc(Nc8ccc(F)c(Cl)c8)c7cc6OCCCN6CCOCC6)CC5)CC4)cc3C2=O)C(=O)N1 (stereo not drawn) [Compound 10]
EGFR^Del19; 10 nM
  EGFR degradation (%): 32.4 ± 17.1%

From paper PMC12592173, “Targeted degradation of EGFR 19Del by PROTACs suppresses tumor growth in non-small-cell lung cancer” (Frontiers in Pharmacology, 2025)
